Values after ≈ are worked out from the molar mass of the structure shown. Values joined by “and” are separate entries in the source; they are usually repeats but may differ in a detail not shown here. Equal entries are not always repeated. Where two headings read alike, the source gives them in different places.
Assays:
[1] = system: HIV-1 (RF) in MT-2 cells; assay: microbe, parasite or virus in culture; format: cell-based; details: HIV-1 infected MT-2 cells, class symbols
Method in brief: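 Read-out: gag and pol viral RNA captured by 5′-biotinylated oligonucleotides on streptavidin-coated wells, detected with alkaline phosphatase-linked reporter oligonucleotides, calibrated against BH10 in vitro transcripts. Virus stocks (RF, MN, IIIB) come from H9 cultures; MT-2 host cells kept in RPMI 1640, 5% FCS.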

[2] = molecular target: single-chain tethered dimer of HIV protease (Human immunodeficiency virus 1, UniProt P04585); assay: biochemical; format: biochemical
Experimental: HIV Protease Inhibition Assay—HPLC Method
Active protease was prepared as described therein by extraction with 67% acetic acid, dilution 33-fold with water, dialysis against water and then against a “refolding buffer” consisting of 20 mM MES, 1 mM dithiothreitol and 10% glycerol. Protease was stored as a stock preparation at 10 uM in refolding buffer.
Substrate: Peptide of sequence: aminobenzoyl-Ala-Thr-His-Gln-Val-Tyr-Phe(NO2)-Val-Arg-Lys-Ala containing p-nitrophenylalanine, was prepared by solid phase synthesis as previously described Cheng et al., op.cit. Stock solutions of 2 mM substrate were prepared in DMSO.
Inhibitory compounds were dissolved in sufficient DMSO to make 3 mM stock solutions. All further dilutions were prepared in “assay buffer”: 1M NaCl, 50 mM MES, pH 5.5, 1 mM EDTA, 1 mM DTT, […] glycerol.
Enzyme reaction: In a 2 ml screw-cap centrifuge tube were added 50 ul protease (final concentration 0.25 nM) and 0.1 ml inhibitory compound (final concentration […]). After 15 min preincubation at room temperature, the reaction was started with the addition of 0.05 ml substrate (final concentration 5 uM). Incubation was carried out at 30 C. for 1 hr. The reaction was stopped with 1 ml 0.1M ammonium hydroxide.
HPLC measurement of product formation: The product (aminobenzoyl-Ala-Thr-His-Gln-Val-Tyr) was separated from substrate on a Pharmacia MonoQ anion exchange column. The injection volume was 0.2 ml. The mobile phases were: A (20 mM trisHCl, pH 9.0, 0.02% sodium Azide, 10% acetonitrile), B (20 mM tris HCl, pH 9.0, 0.02% sodium azide, 0.5M ammonium formate, 10% acetonitrile). The mobile phases were pumped at 1 ml/min, with a gradient from 0 to 30% B in 5 min, 100% B for 4 min to wash the column, and a re-equilibration for 4 min. The retention time of the product was 3.6 min. Detection with a Shimadzu model RF535 fluorescence monitor was at 330 nm (excitation) and 430 (emission).

[3] = Human immunodeficiency virus 1, MT2, HIV RNA assay, read-out: IC90
[4] = HIV protease inhibition, class symbols, read-out: Ki

SMILES | IC90 [1, 3] | Ki [2] | melting point | IC90 ([1]; HIV RNA assay) | Ki [2, 4]
COCCN1C(=O)N(CCOC)C(Cc2ccccc2)C(O)C(O)C1Cc1ccccc1 (centres unmarked) [Example 3N] | > 100 µg/mL | 10 to 1000 nM | 183 to 185 °C |  | 
CC(C)(C)CCN1C(=O)N(CCC(C)(C)C)C(Cc2ccccc2)C(O)C(O)C1Cc1ccccc1 (centres unmarked) [Example 3P] | > 100 µg/mL | 10 to 1000 nM | 242 to 245 °C |  | 
CCOCCN1C(=O)N(CCOCC)C(Cc2ccccc2)C(O)C(O)C1Cc1ccccc1 (centres unmarked) [Example 3R] | > 100 µg/mL | > 1000 nM | 148 to 150 °C |  | 
CCCCN1C(=O)N(Cc2ccccc2)C(Cc2ccccc2)C(O)C(O)C1Cc1ccccc1 (centres unmarked) [Example 3V] | < 10 µg/mL | < 10 nM | 89 to 91 °C |  | 
CC(C)=CCN1C(=O)N(Cc2ccccc2)C(Cc2ccccc2)C(O)C(O)C1Cc1ccccc1 (centres unmarked) [Example 3Y] | < 10 µg/mL | < 10 nM | 173 to 174 °C |  | 
CCN1C(=O)N(Cc2ccccc2)C(Cc2ccccc2)C(O)C(O)C1Cc1ccccc1 (centres unmarked) [Example 4A] | < 10 µg/mL | < 10 nM | 190 to 193 °C |  | 
O=C1N(Cc2c(F)c(F)c(F)c(F)c2F)C(Cc2ccccc2)C(O)C(O)C(Cc2ccccc2)N1Cc1c(F)c(F)c(F)c(F)c1F (centres unmarked) [Example 4J] | < 10 µg/mL | > 1000 nM | 193 to 195 °C |  | 
O=C1N(Cc2ccc3ccccc3c2)C(Cc2ccccc2)C(O)C(O)C(Cc2ccccc2)N1CC1CC1 (centres unmarked) [Example 4K] | < 10 µg/mL | < 10 nM | 175 to 178 °C |  | 
O=C1N(Cc2ccc3ccccc3c2)C(Cc2ccccc2)C(O)C(O)C(Cc2ccccc2)N1CC1CCCC1 (centres unmarked) [Example 4L] | < 10 µg/mL | < 10 nM | 89 to 92 °C |  | 
O=C1N(Cc2ccccc2)C(Cc2ccccc2)C(O)C(O)C(Cc2ccccc2)N1Cc1ccc2ccccc2c1 (centres unmarked) [Example 4M] | < 10 µg/mL | < 10 nM | 90 to 92 °C |  | 
N#Cc1cccc(CN2C(=O)N(Cc3cccc(C#N)c3)C(Cc3ccccc3)C(O)C(O)C2Cc2ccccc2)c1 (centres unmarked) [Example 4P] | < 10 µg/mL | < 10 nM | 225 to 227 °C |  | 
O=C1N(Cc2ccc(-c3ccccc3)cc2)C(Cc2ccccc2)C(O)C(O)C(Cc2ccccc2)N1Cc1ccc(-c2ccccc2)cc1 (centres unmarked) [Example 4R] |  | 10 to 1000 nM | 109 to 110 °C |  | 
C=CCN1C(=O)N(Cc2ccc3ccccc3c2)C(Cc2ccccc2)C(O)C(O)C1Cc1ccccc1 (centres unmarked) [Example 4S] | < 10 µg/mL | < 10 nM | 72 to 74 °C |  | 
CCCCN1C(=O)N(Cc2ccc3ccccc3c2)C(Cc2ccccc2)C(O)C(O)C1Cc1ccccc1 (centres unmarked) [Example 4U] | < 10 µg/mL | < 10 nM | 78 to 80 °C |  | 
O=C1NC(Cc2ccccc2)C(O)C(O)C(Cc2ccccc2)N1Cc1ccc2ccccc2c1 (centres unmarked) [Example 4V] | < 10 µg/mL | < 10 nM | 210 to 213 °C |  | 
O=C1N(Cc2ccc3ccccc3c2)C(Cc2ccccc2)C(O)C(O)C(Cc2ccccc2)N1Cc1ccccn1 (centres unmarked) [Example 4Y] | < 10 µg/mL | 10 to 1000 nM | 165 to 166 °C |  | 
O=C1N(Cc2ccncc2)C(Cc2ccccc2)C(O)C(O)C(Cc2ccccc2)N1Cc1ccc2ccccc2c1 (centres unmarked) [Example 4Z] | < 10 µg/mL | < 10 nM | 118 to 121 °C |  | 
C=CCN1C(=O)NC(Cc2ccccc2)C(O)C(O)C1Cc1ccccc1 (centres unmarked) [Example 5A] |  | > 1000 nM | 180 to 182 °C |  | 
C=CCN1C(=O)N(Cc2ccccn2)C(Cc2ccccc2)C(O)C(O)C1Cc1ccccc1 (centres unmarked) [Example 5C] | < 10 µg/mL | 10 to 1000 nM | 160 to 162 °C |  | 
O=C1N(Cc2cccc(OCc3ccccc3)c2)C(Cc2ccccc2)C(O)C(O)C(Cc2ccccc2)N1Cc1cccc(OCc2ccccc2)c1 (centres unmarked) [Example 5F] |  | 10 to 1000 nM | 165 to 166 °C |  | 
CCCCN1C(=O)N(CC2CCCC2)C(Cc2ccccc2)C(O)C(O)C1Cc1ccccc1 (centres unmarked) [Example 6J] | < 10 µg/mL | < 10 nM |  |  | 
CC(C)N1C(=O)N(Cc2ccccn2)C(Cc2ccccc2)C(O)C(O)C1Cc1ccccc1 (centres unmarked) [Example 6L] | < 10 µg/mL | 10 to 1000 nM |  |  | 
COc1ccc(CN2C(=O)N(Cc3ccc(OC)cc3)C(Cc3ccccc3)C(O)C(O)C2Cc2ccccc2)cc1 (centres unmarked) [Example 6M] |  |  |  | +++ (+++=<10 μg/mL) | 10 to 1000 nM

SMILES | IC90 [1, 3] | Ki [2] | melting point | IC90 ([1]; HIV RNA assay) | Ki [2, 4]
CN(C)CCN1C(=O)N(CCN(C)C)C(Cc2ccccc2)C(O)C(O)C1Cc1ccccc1 (centres unmarked) [Example 6N] |  |  |  | + (+=>100 μg/mL) | > 1000 nM
O=C1N(Cc2ccccc2F)C(Cc2ccccc2)C(O)C(O)C(Cc2ccccc2)N1Cc1ccccc1F (centres unmarked) [Example 6P] | < 10 µg/mL | 10 to 1000 nM |  |  | 
COc1cccc(CN2C(=O)N(Cc3cccc(OC)c3)C(Cc3ccccc3)C(O)C(O)C2Cc2ccccc2)c1 (centres unmarked) [Example 6Q] | < 10 µg/mL | < 10 nM |  |  | 
CN(C)CCN1C(=O)N(CCN(C)C)C(Cc2ccccc2)C(O)C(O)C1Cc1ccccc1 (centres unmarked) [Example 6R] | > 100 µg/mL | > 1000 nM |  |  | 
O=C1N(Cc2ccc(F)c(F)c2)C(Cc2ccccc2)C(O)C(O)C(Cc2ccccc2)N1Cc1ccc(F)c(F)c1 (centres unmarked) [Example 6S] | < 10 µg/mL | < 10 nM |  |  | 
Cc1ccc(CN2C(=O)N(Cc3ccc(C)cc3)C(Cc3ccccc3)C(O)C(O)C2Cc2ccccc2)cc1 (centres unmarked) [Example 6T] | < 10 µg/mL | < 10 nM |  |  | 
O=C1N(Cc2ccc(Cl)cc2)C(Cc2ccccc2)C(O)C(O)C(Cc2ccccc2)N1Cc1ccc(Cl)cc1 (centres unmarked) [Example 6U] | < 10 µg/mL | < 10 nM |  |  | 
O=C1N(Cc2ccc(F)cc2)C(Cc2ccccc2)C(O)C(O)C(Cc2ccccc2)N1CC1CC1 (centres unmarked) [Example 6V] |  |  |  | +++ (+++=<10 μg/mL) | < 10 nM
Cc1cccc(CN2C(=O)N(Cc3cccc(C)c3)C(Cc3ccccc3)C(O)C(O)C2Cc2ccccc2)c1 (centres unmarked) [Example 6ZA] | < 10 µg/mL | < 10 nM |  |  | 
COc1ccccc1CN1C(=O)N(Cc2ccccc2OC)C(Cc2ccccc2)C(O)C(O)C1Cc1ccccc1 (centres unmarked) [Example 6ZB] | 10 to 100 µg/mL (≈ 17.6 to 176 µM) | > 1000 nM |  |  | 
O=C1N(Cc2ccccc2Cl)C(Cc2ccccc2)C(O)C(O)C(Cc2ccccc2)N1Cc1ccccc1Cl (centres unmarked) [Example 6ZD] | < 10 µg/mL | 10 to 1000 nM |  |  | 
O=C1N(Cc2ccc(Br)cc2)C(Cc2ccccc2)C(O)C(O)C(Cc2ccccc2)N1Cc1ccc(Br)cc1 (centres unmarked) [Example 6ZG] | < 10 µg/mL | 10 to 1000 nM |  |  | 
O=C1N(Cc2cccc(Cl)c2)C(Cc2ccccc2)C(O)C(O)C(Cc2ccccc2)N1CC1CC1 (centres unmarked) [Example 6ZH] |  |  |  | +++ (+++=<10 μg/mL) | < 10 nM
Nc1cccc(CN2C(=O)N(Cc3cccc(N)c3)C(Cc3ccccc3)C(O)C(O)C2Cc2ccccc2)c1 (centres unmarked) [Example 6ZI] | < 10 µg/mL | < 10 nM |  |  | 
NCc1cccc(CN2C(=O)N(Cc3cccc(CN)c3)C(Cc3ccccc3)C(O)C(O)C2Cc2ccccc2)c1 (centres unmarked) [Example 6ZK] | 10 to 100 µg/mL (≈ 17.7 to 177 µM) | 10 to 1000 nM |  |  | 
O=C1NC(Cc2ccccc2)C(O)C(O)C(Cc2ccccc2)N1Cc1cccc([N+](=O)[O-])c1 (centres unmarked) [Example 6ZL] | < 10 µg/mL | < 10 nM |  |  | 
O=CNc1cccc(CN2C(=O)N(Cc3cccc(NC=O)c3)C(Cc3ccccc3)C(O)C(O)C2Cc2ccccc2)c1 (centres unmarked) [Example 6ZM] | < 10 µg/mL | < 10 nM |  |  | 
CC(=O)Nc1cccc(CN2C(=O)N(Cc3cccc(NC(C)=O)c3)C(Cc3ccccc3)C(O)C(O)C2Cc2ccccc2)c1 (centres unmarked) [Example 6ZN] | < 10 µg/mL | < 10 nM |  |  | 
O=C1N(Cc2cn(Cc3ccccc3)cn2)C(Cc2ccccc2)C(O)C(O)C(Cc2ccccc2)N1Cc1cn(Cc2ccccc2)cn1 (centres unmarked) [Example 6ZP] |  |  |  | ++ (++=10 to 100 μg/mL) | > 1000 nM
O=C1N(Cc2ccc(O)c(O)c2)C(Cc2ccccc2)C(O)C(O)C(Cc2ccccc2)N1Cc1ccc(O)c(O)c1 (centres unmarked) [Example 6ZQ] | < 10 µg/mL | < 10 nM |  |  | 
O=C1NC(Cc2ccccc2)C(O)C(O)C(Cc2ccccc2)N1Cc1ccccc1 (centres unmarked) [Example 6o] | < 10 µg/mL | < 10 nM |  |  | 
O=C1c2ccccc2C(O)C(O)c2ccccc21 (centres unmarked) [Example 26A, 5H-dibenzo [A,D] cyclohepten-5-one-10,11-dihydro-10, 11-diol] |  | > 1000 nM | 107.5 to 108 °C and 107.5 to 107.9 °C |  | 
